This passage reports IC50 results from BindingDB's records for doi:10.1016/j.chembiol.2008.02.015 (University of Dundee, 2008).

Broadly, the IC50 is the concentration at which inhibition is half-maximal. Read a high IC50 as weaker potency in that assay.

One assay has as its target Chitotriosidase-1 (Homo sapiens, UniProt Q13231). The experiment in a line: Inhibition Assay. The conditions noted are these: pH 5.5.
The next assay deals with Endochitinase B1 (Aspergillus fumigatus, UniProt Q873X9). Description: Inhibition Assay. To be noted: pH 5.5.

Numbered stars: 1 amine (or outer) side, 2 acyl side, 3 side chain; on linkers, the order of the positions; unused ones are H or OH. Square brackets hold non-standard residues; d marks the D form. Side chains are listed from the residue outwards. Peptide text beside a SMILES is read from it. NMeF = CN[C@@H](Cc1ccccc1)C(=O)O; CO = O=C([*:1])[*:2]

Chitotriosidase-1, sequence (Q13231 whole entry): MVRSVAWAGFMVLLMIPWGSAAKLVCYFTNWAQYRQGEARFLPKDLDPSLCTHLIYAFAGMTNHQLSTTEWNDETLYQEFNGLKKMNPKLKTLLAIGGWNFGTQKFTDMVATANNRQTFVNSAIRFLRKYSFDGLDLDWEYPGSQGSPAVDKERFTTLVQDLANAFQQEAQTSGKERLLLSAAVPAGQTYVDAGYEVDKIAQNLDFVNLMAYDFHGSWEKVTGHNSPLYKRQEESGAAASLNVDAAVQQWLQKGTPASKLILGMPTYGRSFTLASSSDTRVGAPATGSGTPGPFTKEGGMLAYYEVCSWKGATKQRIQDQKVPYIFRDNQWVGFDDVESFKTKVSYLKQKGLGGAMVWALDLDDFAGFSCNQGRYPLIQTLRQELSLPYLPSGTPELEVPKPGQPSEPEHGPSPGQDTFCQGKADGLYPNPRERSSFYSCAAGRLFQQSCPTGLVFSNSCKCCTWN

With `[H]/N=C(\NC)NC(=O)NC` [Argifin-Derived Fragments, 1], the IC50 on Chitotriosidase-1 is 5800 µM; at Endochitinase B1, 500 µM. The molecule `CNC(=O)NC(N)=NCCC[C@H](NC(C)=O)C(=O)NC` [Monopeptide] came in with a half-inhibitory concentration (IC50) at Chitotriosidase-1 of 1000 µM. In the case of `CNC(=O)NC(N)=NCCC[C@H](NC(C)=O)C(=O)N(C)[C@@H](Cc1ccccc1)C(=O)N[C@@H](CC(=O)O)C(=O)O` [Tripeptide] (Ac-Arg([CO-NHMe])-[NMeF]-Asp-OH), the concentration for half-maximal inhibition (IC50) against Chitotriosidase-1 amounted to 68 µM; on Endochitinase B1, 5.1 µM. At Endochitinase B1, `CNC(=O)NC(=N)NCCC[C@@H]1NC(=O)[C@@H](C)NC(=O)C[C@@H](C(=O)O)NC(=O)C[C@@H](C(=O)O)NC(=O)[C@H](Cc2ccccc2)N(C)C1=O` [(2R,5S,8S,11S,15S)-8-benzyl-2,7-dimethyl-5-[3-({[(methylcarbamoyl)amino]methanimidoyl}amino)propyl]-3,6,9,13,17-pentaoxo-1,4,7,10,14-pentaazacycloheptadecane-11,15-dicarboxylic acid] had a half-maximal inhibitory concentration (IC50) of 0.027 µM.

On to `CNC(=O)NC(N)=NCCC[C@H](NC(=O)[C@@H](C)NC(C)=O)C(=O)N(C)[C@@H](Cc1ccccc1)C(=O)N[C@@H](CC(=O)O)C(=O)O` [Tetrapeptide], for which it took 28 µM to reach half-maximal inhibition against Chitotriosidase-1 (IC50). In other words, the double-digit micromolar range.

`CNC(=O)NC(=N)NCCC[C@H](NC(C)=O)C(=O)N(C)[C@@H](Cc1ccccc1)C(=O)O` registered a half-maximal inhibitory concentration (IC50) on Chitotriosidase-1 of 190 µM. This IC50 is about 6.8-fold higher than that of the molecule before.
